Experimental findings from PubChem BioAssay (NCI) are described below.

Common to all, as to assay: NCI tumour cell line growth inhibition, 48 h
In experiment [1] the test system is HOP-62 NSCLC.
For experiment [2], the system named is TK-10 renal.
The test system of experiment [3] is BT-549 breast.
The test system of experiment [4] is LOX IMVI melanoma.
For experiment [5], the system named is MOLT-4 leukemia.
The test system of experiment [6] is SR leukemia.
Experiment [7] relates to SK-OV-3 ovarian.
Experiment [8] has as its system SF-539 CNS.
Experiment [9] concerns DU-145 prostate.
The subject of experiment [10] is MCF7 breast.

SMILES strings stand for the structures.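 96-well plates; 48 h exposure; 5 concentrations. Endpoints by linear interpolation between flanking doses. Not reached: highest tested concentration assigned. Abbreviation: GI50, concentration required for 50% inhibition of growth. At the TGI there is no net growth.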 Bounds are passed on as bounds.

In the case of `CCOc1ccc2c(ccc(/C=C\c3cc(C)c4cccnc4c3O)[n+]2C)c1`, the TGI came out at 28 µM in experiment [1]; 6 µM in [2]; 38.1 µM in [3]; 66.4 µM in [4]; 10.6 µM in [5]; 5.73 µM in experiment [6]. Moreover, the TGI was determined as 10.4 µM in experiment [7], 10.9 µM in experiment [8] and 18.6 µM in experiment [9].

For `COc1cc2c3c(n(CCN(C)C)c(=O)c2cc1OC)-c1cc2c(cc1C3=O)OCO2`, the TGI is greater than 86.1 µM in experiment [1]; greater than 100 µM in experiment [2]; greater than 100 µM in experiment [3]; greater than 21.5 µM in experiment [4]; greater than 100 µM in experiment [7]; 1.59 µM in experiment [8]. The TGI in experiment [9] is greater than 22.5 µM; in experiment [10], greater than 33.8 µM. Further, the GI50 was 46.2 µM in [2]; greater than 47.7 µM in [3]; less than 0.0491 µM in [5]; greater than 29 µM in experiment [7]; 0.218 µM in experiment [9]; 0.297 µM in [10].

For the compound `O=C(O)c1cc(=O)[nH]c(=S)[nH]1`, the TGI in [1], in experiment [2], in [3], in experiment [4], in experiment [5] and in experiment [7] was greater than 100 µM throughout. Besides, the TGI in [9] and in [10] was greater than 100 µM throughout.

Consider `CCCCN(CCCC)CCCCNc1c(C)cnc2cc(Cl)ccc12`, for which the TGI in experiment [1] was 68.2 µM; in experiment [2], 96 µM; in experiment [4], 29.7 µM; in [5], greater than 100 µM; in [8], 27 µM.

On to `Cc1ccc(S(=O)(=O)Oc2cc(S(=O)(=O)O)cc3cc(S(=O)(=O)O)cc(N)c23)cc1`, for which the TGI in [1], in experiment [2], in experiment [3], in [4], in [6] and in [7] was greater than 100 µM in each case. In addition, the TGI in experiment [8], in experiment [9] and in experiment [10] was greater than 100 µM throughout.

Turning to `c1ccc2c(c1)nc1n2CSC1`, the TGI in experiment [2], in experiment [4], in experiment [5], in experiment [7] and in [8] was greater than 100 µM in each case.

Take `O=C(Nc1ccc(Cl)cc1)/C(Cc1cccc[n+]1[O-])=N\Nc1ccc([N+](=O)[O-])cc1[N+](=O)[O-]`: the TGI in [1], in experiment [2], in [4], in [5], in [7] and in [8] was greater than 100 µM each time.

Consider `[C-]#[O+].[Cl][Sn]([Cl])[Cl].[Cl][Sn]([Cl])[Cl].[Pt].c1ccncc1`, for which the TGI is greater than 100 µM in experiment [1]; greater than 31.6 µM in experiment [4]; greater than 100 µM in experiment [5]; greater than 100 µM in experiment [7]; greater than 100 µM in experiment [8]; greater than 100 µM in experiment [10]. Moreover, in experiment [10], the GI50 is greater than 100 µM.

Regarding `CCN(CC)CCCC(Nc1c2ccc(Cl)cc2nc2ccc(OC)cc12)c1ccc(F)cc1` (stereo not drawn), the GI50 in [1] is 2.54 µM; in experiment [2] it was 1.81 µM; in experiment [3], 12.8 µM; in experiment [4], 1.77 µM; in experiment [5], 2.72 µM; in experiment [6] it was 2.19 µM. For the same compound, the GI50 in experiment [7] is 4.33 µM; in [8] it was 1.73 µM; in [9], 3.23 µM; in experiment [10], 1.64 µM. In addition, the TGI in [1] turned out to be 6.87 µM; in experiment [2] it was 3.58 µM; in [3], 26.4 µM; in [4], 3.26 µM; in experiment [5], 7.06 µM; in [6], 5.88 µM. For the same compound, the TGI stood at 15.9 µM in [7], 3.25 µM in experiment [8], 10.4 µM in experiment [9] and 3.62 µM in [10].

In the case of `CN1C2C=C(c3ccccc3)CC1CC2` (stereo not drawn), the TGI in [2], in [4], in [5], in experiment [6], in experiment [7] and in [8] was greater than 100 µM throughout.

Turning to `O=C1CN2C(Cl)(Cl)C2(c2ccccc2)c2cc(Cl)ccc2N1CC(F)(F)F` (stereo not drawn), the TGI was 60.7 µM in experiment [1]; greater than 100 µM in [2]; 39 µM in experiment [4]; 55.8 µM in experiment [5]; 69.9 µM in experiment [6]; greater than 100 µM in experiment [7].

In the case of `CC1=C[C@]2(CC(C)C3C(CC4(C)C5CCC6C(C)(C)C(=O)CC[C@@]67C[C@@]57CC[C@]34C)O2)OC1=O` (stereo partly drawn), the TGI is 79 µM in [2]; 46.6 µM in [4]; greater than 100 µM in [5]; greater than 100 µM in experiment [6]; 42.5 µM in experiment [8].

In the case of `CCOP(=O)(OCC)C(Cc1ccc(OC)c(OC)c1)N=C(c1ccccc1)c1ccccc1` (stereo not drawn), the TGI is greater than 100 µM in experiment [2]; greater than 100 µM in [3]; 46.4 µM in [6]; greater than 100 µM in [8]; greater than 100 µM in experiment [9]; 55.5 µM in [10].

In the case of `CC(/C=C/c1ccc([N+](=O)[O-])o1)=N/N1CC(CN2CCOCC2)OC1=O` (stereo not drawn), the TGI in experiment [1] was greater than 100 µM; in [2], greater than 100 µM; in [3], 24.2 µM; in [4], greater than 100 µM; in experiment [5] it was 68.6 µM; in experiment [6], 50.4 µM. In addition, the TGI in experiment [7] was greater than 100 µM; in [8], 48.8 µM; in experiment [9], 60.4 µM; in [10], 27 µM.

For the compound `COc1ccc(/C=N/NC(=O)NCCCN(C)C)cc1`, the TGI in experiment [2], in [4], in experiment [5], in experiment [7] and in [8] was greater than 100 µM throughout.

As for `CCOc1ccc(/C=C/[N+](=O)[O-])cc1`, the GI50 is 12.5 µM in experiment [1]; 12 µM in [2]; 5.7 µM in experiment [5]; 2.56 µM in experiment [6]; 2.35 µM in [8]; 10.4 µM in experiment [9]. Further, in experiment [10], the GI50 was 3.4 µM. The TGI was 26.3 µM in experiment [1]; 24.7 µM in experiment [2]; 42.9 µM in experiment [5]; 6.37 µM in [6]; 6.4 µM in experiment [8]; 22.2 µM in experiment [9]. The TGI in [10] was determined as 13.5 µM.

For `Cc1nc2ccccc2c(=O)n1CC(=O)O`, the TGI in experiment [1], in [4], in [5], in experiment [7], in [8] and in [10] was greater than 100 µM each time.

Consider `Cn1cc(C[C@@H](N)C(=O)O)c2ccccc21`, for which the TGI in experiment [1], in experiment [2], in [3], in [4], in experiment [5] and in experiment [6] was greater than 100 µM in each case. Besides, the TGI in [7], in [8], in experiment [9] and in experiment [10] was greater than 100 µM in each case.

For the compound `Cc1cccc2c(N)c3cccc(C(=O)NCCN(C)C)c3nc12`, the TGI is 0.459 µM in [1]; greater than 30 µM in experiment [2]; 4.16 µM in experiment [3]; 0.158 µM in [4]; 0.0347 µM in experiment [6]; 14.5 µM in [7]. Also, the TGI in experiment [9] was found to be 0.639 µM.

Turning to `Nc1ncnc2c1ncn2C1CCC(CO)O1` (stereo not drawn), the TGI in [1], in [4], in experiment [5], in experiment [7], in experiment [8] and in experiment [10] was greater than 100 µM throughout.

On to `CC(C)=CCc1c(C)cc2cc3c(c(O)c2c1O)C(O)=CC(=O)C3(CC=C(C)C)C/C=C(\C)CO` (stereo not drawn), for which the TGI in experiment [1] turned out to be 64.3 µM; in [4] it was 77.4 µM; in experiment [5] it was 75.7 µM; in experiment [7] it was 71.4 µM; in experiment [8], 76.2 µM; in experiment [10] it was 84.3 µM.

As for `CC[C@@H](C(=O)[C@@H](C)[C@@H](O)[C@H](C)CCc1ccc(C)c(O)c1C(=O)O)[C@H]1O[C@](CC)([C@H]2CC[C@](O)(CC)[C@H](C)O2)C[C@@H]1C`, the TGI turned out to be 4.24 µM in [1]; 12.6 µM in [2]; 12 µM in experiment [4]; 3.12 µM in [5]; 10.2 µM in [7]; 5.46 µM in experiment [8].

With `O=C(Nc1nc2ccc([N+](=O)[O-])cc2[n+]([O-])n1)C(F)(F)F`, the TGI in experiment [2] was greater than 100 µM; in [3], greater than 100 µM; in experiment [5], 81.6 µM; in experiment [6], greater than 100 µM; in [8], greater than 100 µM; in [9], greater than 100 µM. In addition, the TGI in experiment [10] was 52.4 µM.

With `CO/N=C1/c2sccc2[C@H](NC(=O)C(F)(F)F)[C@@H]1O`, the TGI in experiment [1], in [2], in [3], in experiment [4], in experiment [5] and in [6] was greater than 100 µM each time. For the same compound, the TGI in [7], in experiment [8], in [9] and in [10] was greater than 100 µM each time.

Take `C[C@]12C=CC(=O)C=C1CC[C@@H]1[C@@H]2C(=O)C[C@@]2(C)[C@H]1CC[C@]2(O)C(=O)CO`: the TGI in experiment [1], in [2], in experiment [3], in experiment [4], in experiment [5] and in [6] was greater than 100 µM in each case. Further, the TGI in experiment [7], in experiment [8], in [9] and in experiment [10] was greater than 100 µM each time.
